A short description of data set [1]: PAMPA-GIT permeability assay. The note with it: for Experimental Fa: absorbed fraction; for Papp: read-out: Experimental Pe; for Classification (intestinal permeability): by absorbed fraction. The data set is classed as in vitro ADME. From the text: The parallel artificial membrane permeability assay (PAMPA) utilizes a 96-well plate system in a “sandwich” format, where one plate is positioned above another (PAMPA). The upper plate, known as the donor compartment, contains the compounds (test or control) dissolved in a buffered solution. […] The lipid composition of the PVDF filter varies depending on the type of permeability test. For gastrointestinal tract (GIT) permeability assessments, L-α-soy phosphatidylcholine in dodecane is used. Optical density values are measured at specified wavelengths for each compound and compared against controls. For GIT permeability, the absorbed fraction (Fa%) and permeability (Pe) are determined. […] Compounds for these assays were diluted from a 10 mM stock solution. These assays were conducted using a 1 mg/mL stock solution per compound.

The conditions of data set [2]: ref C. Zhu et al. Eur. J. Med. Chem. 37 (2002) 399–407 [22], cited from earlier work.
[3] abbreviates: L-α-soy phosphatidylcholine in dodecane.

Turning to `Nc1nc2c(ncn2COCCO)c(=O)[nH]1` [Acyclovir, acyclovir], the “Experimental Pe” value in data set [1] (setting [3]) is given as 0.36 10^−6 cm/s. Also, in data set [1], the “Experimental Fa” value came to 12.64%.
Consider `CO/N=C(\C(=O)N[C@@H]1C(=O)N2C(C(=O)O)=C(CSc3nc(=O)c(=O)[nH]n3C)CS[C@H]12)c1csc(N)n1` [Ceftriaxone, ceftriaxone], for which the Papp in data set [1] (setting [3]) came to 0.53 ×10⁻⁶ cm/s. Besides, in data set [1], the “Experimental Fa” value turned out to be 18.19% and the “Classification (intestinal permeability)” value is “Low (low (0–29%))”. The “Literature Fa” value in data set [2] (absorbed fraction) is 1%. For the same compound, the “Literature Pe” value in data set [2] (artificial membrane permeability) is on record as 0.1 10^−6 cm/s.
In the case of `O=c1ccc2ccccc2o1` [Coumarin, coumarin], the Papp in data set [1] (setting [3]) was 25.2 ×10⁻⁶ cm/s. In data set [1], the “Experimental Fa” value was found to be 99.99% and the “Classification (intestinal permeability)” value is on record as “High (high (70–100%))”.
`CCn1cc(C(=O)O)c(=O)c2cc(F)c(N3CCNCC3)cc21` [Norfloxacin, norfloxacin]: the Papp in data set [1] (setting [3]) worked out at 1.56 ×10⁻⁶ cm/s. Moreover, the “Classification (intestinal permeability)” value in data set [1] is listed as “Medium (medium (30–69%))”.

The record behind these values is paper PMC12030059, “Mechanistic Advances in the Therapeutic Application of Bixin for Lung Inflammation In Vitro and In Vivo” (Pharmaceuticals, 2025).
